Experimental data reported in patent publication US6653354B2, “NMDA antagonist comprising xenon” (priority 1999, dated 2003).

What was measured:
[1] = test system: humans, monkeys and rats; test: MAC as free aqueous concentration, average of humans, monkeys and rats; assay type: in vivo; conditions: 37° C.
Procedure: The gaseous concentration of xenon which prevents a response to a painful stimulus (i.e. MAC) appears to vary among species, being 71% atm in humans (Cullen SC et al, Anesthesiology 1969, 31:305-309), 98% atm in rhesus monkeys (Whitehurst S L et al, J. Neurosurg. Anesthesiol. 1994, 6:275-279) and 161% atm in rats (Koblin D D et al, Anesth. Analg. 1998, 87:419-424). When these values are converted to free aqueous concentrations at 37° C. (Franks N P et al, Br. J. Anaesth. 1993, 71:65-76; Franks N P et al, Anesthesiology, 1996, 84:716-720) using an Ostwald water/gas partition coefficient of 0.0887 (Weathersby P K et al, Undersea Biomed. Res. 1980, 7:277-296), the values obtained are 2.5 mM, 3.4 mM and 5.6 mM for humans, monkeys and rats respectively, with the average value being 3.8 mM. For the experiments described herein, performed at room temperature, the concentration of xenon present in the standard test solution was 3.4 mM. […] This is illustrated with representative traces in FIG. 2.

[2] = cited from earlier work
[3] = test system: cortical neuronal-glial co-culture injured with NMDA; test: NMDA-induced neuronal injury in neuronal-glial co-culture (LDH release); assay type: cell-based, mouse
Procedure: Dissociated murine cortical cell cultures were prepared using whole cerebral neocortices from fetal mice (14-17 days of gestation). Cortical glial cell cultures were prepared from early postnatal mice. After halting non-neuronal cell division with cytosine arabinoside the surviving cortical neuronal cells were plated onto the glial cell background and co-cultured.
15 days after originally harvesting the foetal cortical cells, the co-culture plates were exposed at room temperature to N-methyl,D-aspartate (NMDA), 10-1,000 μM, in a control salt solution (CCS) for 10 minutes. After carefully washing out with CCS, the cells were incubated for 6-24 hours in a Eagle's minimal essential medium free of glutamate or lactate dehydrogenase (LDH) but supplemented with glucose 25 mM, and NaHCO3 38 mM at 37° C. in humidified CO2 (5%) atmosphere. The degree of injury was determined by measuring the LDH released into the medium. A dose-response curve of NMDA-induced injury is shown in FIG. 10, as described hereinbefore.
75% of one atmosphere of xenon was delivered to the cells during and after exposure to a 750 μM NMDA, a concentration which produces a near maximal injury. The degree of injury was determined by measuring the LDH released into the medium (after correcting for “baseline” LDH release). Xenon reduced the injury produced by NMDA by more than 30%; when xenon was continued after NMDA exposure, the injury was further reduced by more than 55%. The results of the protective effect of xenon are illustrated in FIG. 12, as described hereinbefore.

[4] = test system: neurons of arcuate nucleus of hypothalamus; test: NMA-induced neuron injury in the arcuate nucleus (neuroprotection in vivo); set-up: species or system Sprague Dawley female adult rats; conditions: 75% Xe + NMA 100 mg/kg s.c.
Procedure: It can be seen that NMA caused neuronal degeneration and vacuoulated swelling in the neuropil giving a spongiform appearance in the arcuate nucleus (E). The degenerated neuron has a pyknotic nucleus, which look like “bulls' eyes” because of oedematous swelling of the cytoplasmic compartment.
Rats were injected with NMA (100 mg/kg) sc and sacrificed 4 hours later after exposure to air (“NMA”; n=7) or xenon 75% (“75% xenon+NMA”; n=8). (For comparison the effect of MK801, the NMDA antagonist, is also shown). The arcuate nucleus was removed and sectioned and stained with cresyl violet. Control animals (“PS”; n=6) had neither NMA nor xenon administered. Data are reflected as either the mean of three sections/animal (upper) or the sum (lower) of degenerated neurons in both arcuate nuclei.

## [Xe] [xenon]
[1]
  MAC as free aqueous concentration, average value: 3.8 mM
[2]; 37° C.
  Ostwald water/gas partition coefficient: 0.0887
[2]; room temperature
  Bunsen water/gas partition coefficient: 0.0965
[3]; 250 μM NMDA for 10 minutes, low (sub-anaesthetic) concentrations of xenon, LDH after 6 hours
  protection against excitotoxicity (% of LDH released in the absence of xenon): Highly significant protection
[3]; 250 μM NMDA, 75% xenon
  excitotoxic injury (LDH release, normalised): greatly reduced
[3]; 75% (atm.) xenon, after 6 hours, 10 minute exposure to 250 μM NMDA
  percentage of neuroprotection: 60%
[3]; 75% of one atmosphere xenon during exposure to 750 μM NMDA
  reduction of the injury produced by NMDA (LDH release): more than 30%
[3]; 75% xenon continued after 750 μM NMDA exposure
  reduction of the injury produced by NMDA (LDH release): more than 55%
[4]
  NMA-induced neuronal injury (cresyl fast violet histology): effective in reducing this injury
